We go through one compound from paper PMC7381740 (Theranostics, 2020).

SMILES strings stand for the structures. Several values for one entry are separate records, joined by “and”; a condition that tells them apart may be missing. Identical values can stand only once.

Series [1] addresses T1, S1R (Rattus norvegicus, UniProt Q9R0C9). Description: PET in AMPA excitotoxic lesion model. The format is in vivo. How it is done:
Animals were maintained normothermic (body temperature: 37.0 ± 0.4 °C) during the surgery through the use of a heating blanket (Homeothermic Blanket Control Unit, Harvard Apparatus Limited®, Edenbridge, Kent, UK). Twenty-four hours later, the rats were anesthetized again as described above and scanned with a 3T cryogen-free MRS 3000 scanner with a quadrature, rat head coil (MR Solutions, Guildford, UK), [35] to assess oedema (i.e. lesion size and location) immediately before the PET scan. Parameters for the T2-weighted RARE sequence were: repetition time = 4800 ms, base echo time = 17 ms, effective echo time = 68 ms, number of echoes = 8, bandwidth = 20 kHz, number of samples = 256, number of views = 240, number of averages = 1 with 25 slices of 1.06 mm, giving a final voxel size of 0.136 × 0.136 × 1.06 mm.
PET data were expressed as SUV.
As the experiments with CM398 were performed later, scans without and with pre-treatment with CM398 were performed in the same animals and therefore were analysed using 2 way ANOVA with repeated measures for ROI and treatment. ANOVA were followed by a Sidak's post-hoc test.

Series [2] addresses T2, S1R (Mus musculus, UniProt O55242).
T2 construct: using 20µm fresh frozen brain sections from 6 naïve and 3 AMPA-injected Wistar rats, 6 C57Bl6 mice; from tissue; host or cells: fresh frozen brain sections of 6-OHDA-lesioned C57Bl6 mice
Description: Autoradiography in 6-OHDA Parkinson's disease mouse model. Type of series: binding. To be noted: 6-OHDA mouse. How it is done: C57Bl6 mice were bred in the animal facility of the European Institute for Molecular Imaging (University of Muenster). Animal experiments were performed in accordance with the German laws for animal protection and were approved by the local bureau for animal care (LANUV, Landesamt für Natur, Umwelt und Verbraucherschutz Nordrhein-Westfalen). For stereotactic injections, mice (n = 6) were anaesthetised (ketamine/xylazine i.p.) and placed into a stereotactic frame. A small skin incision followed by craniotomy was performed. The needle was placed in position (coordinates: AP: +0.5 mm; ML: -2.0 mm; DV: -3.0 mm) and after 1 min, 2 µL of 5 mg/mL 6-hydroxydopamine (6-OHDA) in 0.9% NaCl and 0.02% ascorbic acid were injected into the left striatum using a 5 µL Hamilton 7005KH syringe. The syringe was kept in place for 5 min in order to allow the solution to diffuse into the surrounding tissue and was then retracted slowly.
Sections of frontal (Brodmann areas 8/9) and temporal cortex (Brodmann areas 21/22) were cut from frozen human tissue blocks. Human and rodents sections were mounted on to glass slides (SuperFrost Plus Gold and SuperFrost Plus slides, Thermo Fisher Scientific Inc., MA, USA for human and animal tissues, respectively). For all steps described below, Tris buffer (Trizma pre-set crystals (Sigma, UK), 50 mM, with 120 mM NaCl, with pH adjusted to 7.4 at 4 °C or room temperature) was used. Slides were allowed to defrost then pre-incubated in Tris Buffer at 4 °C for 5min. […] Adjacent sections were incubated with the same solution containing an excess of unlabelled IAM6067 (2 µM) to assess non-specific binding. Next the slides were washed 2 × 2 min in Tris buffer at 4 °C, followed by a quick rinsing in distilled water at 4 °C. Slides were then dried promptly before exposition on Phosphor-Imager plates overnight. Autoradiographs were analysed using AIDA software (Raytest GmbH, Germany). […] Specific binding (total binding minus non-specific binding) in each ROI is expressed as intensity of the photostimulated luminescence (PSL) per pixel.

A further series concerns the target σ1 receptor (S1R). The settings on record: cited from earlier work.
The target of series [3] is T1, S1R. The series can be described thus: PET-CT brain uptake at baseline. The settings on record: for maximum brain uptake: PET time-activity curve; for average uptake (sum-image 20-60 min post-injection): baseline.
Description: Sixty minutes PET scans were performed on 23 animals on a Siemens Inveon® PET/CT scanner (Injected dose: 38±11MBq). Eight of them were used for basal uptake. […] Animals scanned on multiple occasions (with/without blocking or different blocking agent) were always scanned at least 24 h apart. […] Animal respiration and temperature were controlled using a pressure-sensitive pad and rectal probe (BioVet, m2m Imaging Corp., Cleveland, OH, USA) and body temperature was maintained at 37 ± 0.7 °C via the interface managed by the BioVet system. […] Briefly, a CT scan was performed prior to the PET acquisition for attenuation correction. The list mode emission data were histogrammed into 3D sinograms of 35 dynamic frames, normalized, corrected for dead-time, attenuation, scatter and radioactive decay, and reconstructed using OSEM3D (16 subsets and 4 iterations) into images of dimensions 128 × 128 × 159 voxels of volume 0.776 × 0.776 × 0.796 mm^3.
PET-CT images were co-registered with the rat MRI template and its associated intracranial mask as published by Schwarz et al. [41] and generously provided by GSK. To co-register the MRI template and PET-CT images, individual brain masks were delineated on each CT image and co-registered with the MRI brain mask using rigid registration with mutual information. Image analysis and quantification was performed using the BrainVisa/Anatomist software (http://www.brainvisa.info) using the geometric transfer matrix (GTM) and ROIopt methods for partial volume correction both described and used previously [42]-[46]. […] PET data were expressed as SUV.

T2 sequence (O55242 whole entry): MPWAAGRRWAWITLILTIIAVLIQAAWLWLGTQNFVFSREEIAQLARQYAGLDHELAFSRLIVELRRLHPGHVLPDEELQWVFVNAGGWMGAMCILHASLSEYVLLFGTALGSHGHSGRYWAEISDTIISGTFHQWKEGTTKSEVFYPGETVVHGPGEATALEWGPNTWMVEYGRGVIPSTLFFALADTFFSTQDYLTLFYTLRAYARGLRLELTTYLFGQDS
T1 sequence (Q9R0C9 whole entry): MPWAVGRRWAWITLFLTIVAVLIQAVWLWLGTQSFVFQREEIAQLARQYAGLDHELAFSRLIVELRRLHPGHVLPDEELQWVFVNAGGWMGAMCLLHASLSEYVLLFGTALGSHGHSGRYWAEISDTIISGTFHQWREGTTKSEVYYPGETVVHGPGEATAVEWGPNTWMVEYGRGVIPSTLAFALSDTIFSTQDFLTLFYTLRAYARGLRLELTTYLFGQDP

Take `FCCOc1ccc(CN2CCN(Cc3cc4ccccc4o3)CC2)cc1` [^18F-IAM6067, N-(2-Benzofuranylmethyl)-N'-[4-(2-fluoroethoxy)benzyl]piperazine]: the “^18F-IAM6067 uptake, AMPA-lesioned vs control rats (in words)” value on S1R [1] (ipsi- and contralateral substantia nigra and pons-raphe) is “significant increase”. The “change in ^18F-IAM6067 uptake (PET)” value at S1R [1] (lesioned caudate-putamen, 24 h after intrastriatal AMPA 7.5 nmol) was -16% and -16 ± 11%. Also, the specific binding at S1R [2] (cingulate cortex, contralateral) was 4.29 ± 0.84 PSL/pixel; at S1R [2] (cingulate cortex, ipsilateral), 4.21 ± 0.87 PSL/pixel; at S1R [2] (striatum, contralateral), 3.30 ± 0.55 PSL/pixel; at S1R [2] (striatum, ipsilateral), 3.39 ± 0.49 PSL/pixel; at S1R [2] (thalamus medio-dorsal, contralateral), 3.22 ± 0.65 PSL/pixel; at S1R [2] (thalamus medio-dorsal, ipsilateral), 3.25 ± 0.64 PSL/pixel. The specific binding amounted to 3.92 ± 1.08 PSL/pixel on S1R [2] (ventral tegmental area/substantia nigra, contralateral) and 3.82 ± 1.25 PSL/pixel on S1R [2] (ventral tegmental area/substantia nigra, ipsilateral). Also, at σ1 receptor (S1R), the Ki was 2.6 nM. Further, the maximum brain uptake on S1R [3] (amygdala) was found to be 3.3 SUV; on S1R [3] (thalamus medio-dorsal), 5.5 SUV. The “average uptake (sum-image 20-60 min post-injection)” value at S1R [3] (caudate/putamen) is 2.3 ± 0.1 SUV; at S1R [3] (cingulate cortex) it was 2.3 ± 0.2 SUV; at S1R [3] (mesencephalic region), 4.7 ± 0.3 SUV; at S1R [3] (pons-raphe) it was 6.4 ± 0.8 SUV; at S1R [3] (substantia nigra), 3.8 ± 0.7 SUV; at S1R [3] (temporal cortex), 2.5 ± 0.2 SUV. The “average uptake (sum-image 20-60 min post-injection)” value at S1R [3] (thalamus medio-dorsal) was determined as 3.9 ± 0.4 SUV. Further, the “time of maximum brain uptake” value on S1R [3] (post-injection, amygdala and thalamus medio-dorsal) is listed as 2.25 min.
